Test results published in patent US20080300147A1, “Detection and Treatment of Fibrotic Disorders” (priority 2004, published 2008).

Tests used:
myometrium = test: Realtime PCR mRNA expression in myometrium, GnRHa therapy vs untreated; assay type: in vivo, human
From the text: Tissues. Portions of leiomyoma and matched myometrium were collected from premenopausal women (N=6) who were scheduled to undergo hysterectomy for indications related to symptomatic leiomyomas. Three of the patients received GnRHa therapy for three months prior to surgery. […] To maintain a standard, all leiomyomas selected for this study were between 2 to 3 cm in diameter. […] The tissues were collected at the University of Florida affiliated Shands Hospital with prior approval obtained from the Institutional Review Board.
(§1) Quantitative RealTime PCR. Realtime PCR was utilized for verification of 10 differentially expressed and regulated genes identified in leiomyoma and myometrium as well as LSMC and MSMC from untreated and GnRHa-treated cohorts. The selection of these genes was based not only on their expression values (up or downregulation), but classification and biological functions important to leiomyoma growth and regression, regulation by ovarian steroids, GnRHa and TGF-β. They are IL-11, CITED2, Nur77, EGR3, TGIF, TIEG, p27, p57, GAS-1 and GPRK5 representing cytokines, transcription factors, cell cycle regulators and signal transduction.
(§2) Portions of leiomyoma and matched myometrium were collected from premenopausal women (N=27) who were scheduled to undergo hysterectomy for symptomatic uterine leiomyomas at the University of Florida affiliated Shands Hospital. Of these patients seven received GnRHa therapy for a period of three months prior to surgery. […] To maintain a standard, leiomyomas used in this study were 2 to 3 cm in diameter. Prior approval was obtained from the University of Florida Institutional Review Board for the experimental protocol of this study.
as §2, with “patients,” for “patients”
Realtime PCR. Briefly, total RNA was isolated from leiomyoma and matched myometrium using Trizol Reagent (INVITROGEN, Carlsbad, Calif.) and complimentary DNA was generated from 2 μg of total RNA using Taqman reverse transcription reagent. The newly synthesized cDNA was used for PCR performed in 96-well optical reaction plates with cDNA equivalent to 100 ng RNA in a volume of 50 μl reaction containing 1× Taqman Universal Master Mix, optimized concentrations of FAM-labeled probe and specific forward and reverse primer for FMOD selected from Assay on Demand (APPLIED BIOSYSTEMS). Controls included RNA subjected to RT-PCR without reverse transcriptase and PCR with water replacing cDNA.

[1] = test system: myometrial smooth muscle cells (MSMC); test: Realtime PCR mRNA expression in treated MSMC; assay type: cell-based, human
Procedure: Isolation and Culture of Leiomyoma and Myometrial Smooth Muscle Cells. […] Only untreated tissues were used for isolation of LSMC and MSMC. […] LSMC and MSMC were cultured in 6-well plates at an approximate density of 10^6 cells/well in DMEM-supplemented media containing 10% FBS. After reaching visual confluence, the cells were washed in serum-free media and incubated for 24 hrs under serum-free, phenol red-free condition (Chegini, N et al. Mol Hum Reprod, 2002, 8:1071-8).
as §1
Determination of TGF-β1 on global gene expression in LSMC and MSMC. All the materials utilized for this study including isolation of leiomyoma and myometrial cells are identical to those described in detail above. To determine the effect of TGF-β1 on global gene expression in LSMC and MSMC, the cells were cultured in 6-well plates at approximate density of 10^6 cells/well in DMEM-supplemented media containing 10% FBS. […] The cells were then treated with 2.5 ng/ml of TGF-β1 (R & D System, Minneapolis, […].) for 2, 6 and 12 hours. […] The cells were washed and then treated with TGF-β1 (2.5 ng/ml) for 2 hours. Parallel experiments using untreated cells were used as controls including an additional control for TGF-β type II receptor antisense and sense experiments.
Total cellular RNA was isolated from LSMC- and MSMC-treated and untreated controls and subjected to microarray analysis. To maintain standard and allow for comparative analysis, the GeneChips used in this study were utilized, simultaneously processed and their gene expression values were subjected to global normalization and transformation. Following these unsupervised assessments the coefficient of variation was calculated for each probe set across all the chips used in this study, and the selected gene expression values of this study were independently subjected to supervised learning including R programming analysis and ANOVA with false discovery rate selected at p<0.001 (Moustakas, A. Immunol Lett, 2002, 82:85-91; Verrecchia, F. et al. J Biol Chem, 2001, 276:17058-17062). The genes identified in these cohorts were analyzed for functional annotation and visualized using Database for Annotation, Visualization, and Integrated Discovery (DAVID) software with integrated GoCharts. Following the analysis, we selected 12 of the differentially expressed and regulated genes, including 10 identified and validated in leiomyoma and myometrium from untreated and GnRHa-treated cohorts, as well as LSMC and MSMC treated in vitro with GnRHa, for validation in response to TGF-β-time dependent action using Realtime PCR. They include IL-11, EGR3, CITED2, TIEG, TGIF, Nur77, p27, p57, GAS-1 and GPRK5. In addition, the expression of Runx1 and Runx2, transcription factors that interact with TGF-β receptor signaling pathways (Zavadil, J. et al. Proc Natl Acad Sci USA, 2001, 98:6686-6691), was validated in LSMC and MSMC as well as in leiomyoma and myometrium from GnRHa-treated and untreated cohorts. Detail description of the materials and methods for Realtime PCR as well as data analysis is provided in Chegini, N. et al. J Soc Gynecol Investig, 2003, 10:161-71.
Isolation and Culture of Leiomyoma and Myometrial Smooth Muscle Cells. Leiomyoma and myometrial smooth muscle cells (LSMC and MSMC) were isolated and cultured as previously described (Chegini, N. et al. Mol Hum Reprod, 2002, 8:1071-1078). […]

[2] = GnRHa therapy three months vs untreated
[3] = GnRHa 0.1 μM, 2, 6 and 12 hours

## CCNC(=O)[C@@H]1CCCN1C(=O)[C@H](CCCNC(=N)N)NC(=O)[C@H](CC(C)C)NC(=O)[C@@H](CC(C)C)NC(=O)[C@H](Cc1ccc(O)cc1)NC(=O)[C@H](CO)NC(=O)[C@H](Cc1c[nH]c2ccccc12)NC(=O)[C@H](Cc1c[nH]cn1)NC(=O)[C@@H]1CCC(=O)N1 [GnRHa, leuprolide acetate]
myometrium; GnRHa therapy three months (N=7) vs untreated
  FMOD mRNA expression in myometrium: significantly reduced
myometrium; [2]
  CCN3 mRNA expression in myometrium: significant reduction
  CCN4 mRNA expression in myometrium: significant reduction
  S100A4 mRNA expression in myometrium: significant reduction
myometrium; GnRHa therapy vs untreated
  CITED2 expression in myometrium: increased
  GPRK5 expression in myometrium: inhibits
  IL-11 expression in myometrium: suppressed
  Nur77 expression in myometrium: significant elevation
[1]; [3]
  CITED2 expression in MSMC: biphasic effect
  GPRK5 expression in MSMC: inhibits
  Runx1 expression in MSMC: time-dependent inhibition
  Runx2 expression in MSMC: time-dependent inhibition
[1]; GnRHa 0.1 μM, 2, 6 and 12 hrs
  CCN2 mRNA expression in MSMC: inhibited
  CCN3 mRNA expression in MSMC: inhibited
  CCN4 mRNA expression in MSMC: inhibited
  S100A4 mRNA expression in MSMC: inhibited
  fibulin-1C mRNA expression in MSMC: inhibited
[1]; GnRHa 0.1 μM, 2 and 6 hrs
  FMOD expression in MSMC: no significant effect
[1]; GnRHa 0.1 μM, 12 hrs
  FMOD expression in MSMC: inhibited
[1]; GnRHa 0.1 μM, within 2 to 6 hours, control levels after 12 hours
  IL-11 expression in MSMC: increased
[1]; GnRHa 0.1 μM, subsequently declined to control levels
  Nur77 expression in MSMC: rapid induction
